Data on twelve compounds can be found in patent US11739074B2, “Ras inhibitors” (Revolution Medicines, Inc., priority 2019, dated 2023).

Experiment [1] has as its system AsPC-1 (K-Ras G12D). Description: Potency assay: pERK in AsPC-1 cells. Type of experiment: cell-based. Particulars: Homo sapiens.
Experiment [2] deals with AsPC-1 (K-Ras G12D). Description: CellTiter-Glo cell viability assay, AsPC-1. Type of experiment: cell-based. Particulars: Homo sapiens, ASPC1, 120 h. Here is the method: Determination of Cell Viability in RAS Mutant Cancer Cell Lines
Protocol: CellTiter-Glo® Cell Viability Assay
Note—The following protocol describes a procedure for monitoring cell viability of K-Ras mutant cancer cell lines in response to a compound of the invention. Other RAS isoforms may be employed, though the number of cells to be seeded will vary based on cell line used.
Test compounds (132.5 nL) were directly dispensed into the assay plates containing cells. […] On day 5, assay plates and their contents were equilibrated to room temperature for approximately 30 minutes. […] Luminescence was measured using the PerkinElmer Enspire. Data were normalized by the following: (Sample signal/Avg. DMSO)*100. The data were fit using a four-parameter logistic fit.

[3] abbreviates: ASPC1, read-out: pERK EC50 (AsPC-1 KRAS G12D).
Setting [4] is: read-out: AsPC-1 Cell Viability IC50, AsPC-1, K-Ras G12D, 5-day treatment.
[5] abbreviates: ASPC1, AsPC-1 cells, K-Ras G12D, read-out: pERK EC50 (AsPC-1 KRAS G12D).
Setting [6] is: AsPC-1, K-Ras G12D, 5-day treatment, read-out: AsPC-1 Cell Viability IC50.

A word on the EC50: it is the concentration needed to bring the measured effect to its halfway point. The IC50 is the midpoint of a concentration-inhibition curve.

Structures are written as SMILES. Where two headings read alike, the source gives them in different places.

Take `CCn1c(-c2cnccc2COC)c2c3cc(ccc31)-c1cc(O)cc(c1)C[C@H](NC(=O)[C@H](C(C)C)N(C)C(=O)CN(C)C(=O)[C@@H]1N[C@@H]1C)C(=O)N1CCC[C@H](N1)C(=O)OCC(C)(C)C2` [Compound 105]: in the experiment on AsPC-1 (K-Ras G12D) [1] (setting [3]), the EC50 was less than 5 µM. In the experiment on AsPC-1 (K-Ras G12D) [2] (setting [4]), the IC50 fell in the range of 1 to 10 µM.
In the case of `CCn1c(-c2cccnc2[C@H](C)OC)c2c3cc(ccc31)-c1cc(O)cc(c1)C[C@H](NC(=O)[C@H](C(C)C)N(C)C(=O)c1ccc(NC(=O)[C@H]3CN3)cn1)C(=O)N1CCC[C@H](N1)C(=O)OCC(C)(C)C2` [Compound 127], the EC50 in the experiment with AsPC-1 (K-Ras G12D) [1] (setting [5]) is less than 5 µM. Further, the IC50 in the experiment with AsPC-1 (K-Ras G12D) [2] (setting [6]) is greater than 10 µM.
Take `CCn1c(-c2cccnc2[C@H](C)OC)c2c3cc(ccc31)-c1cc(O)cc(c1)C[C@H](NC(=O)[C@H](C(C)C)N(C)C(=O)[C@H]1CCN(S(=O)(=O)[C@H]3CN3C)C1)C(=O)N1CCC[C@H](N1)C(=O)OCC(C)(C)C2` (single isomer, unassigned) [Compound 57]: in the experiment with AsPC-1 (K-Ras G12D) [1] (setting [5]), the EC50 is less than 5 µM. Besides, in the experiment with AsPC-1 (K-Ras G12D) [2] (setting [6]), the IC50 is 1 to 10 µM.
With `CCn1c(-c2cccnc2[C@H](C)OC)c2c3cc(ccc31)-c1csc(n1)C[C@H](NC(=O)[C@H](C(C)C)N(C)C(=O)N1CC[C@H](N(C)C(=O)[C@@H]3CN3)C1)C(=O)N1CCC[C@H](N1)C(=O)OCC(C)(C)C2` [Compound 229], the EC50 in the experiment with AsPC-1 (K-Ras G12D) [1] (setting [5]) is less than 5 µM. Moreover, in the experiment on AsPC-1 (K-Ras G12D) [2] (setting [6]), the IC50 lay in the range of 1 to 10 µM.
Take `CCn1c(-c2cccnc2[C@H](C)OC)c2c3cc(ccc31)-c1cc(O)cc(c1)C[C@H](NC(=O)[C@H](C(C)C)N1CC[C@@]3(CCN(C[C@@H]4CN4)C3)C1=O)C(=O)N1CCC[C@H](N1)C(=O)OCC(C)(C)C2` [Compound 138]: the EC50 in the experiment on AsPC-1 (K-Ras G12D) [1] (setting [5]) was less than 5 µM. Besides, the IC50 in the experiment on AsPC-1 (K-Ras G12D) [2] (setting [6]) is greater than 10 µM.
For the compound `CCn1c(-c2cccnc2[C@H](C)OC)c2c3cc(ccc31)-c1cccc(c1)C[C@H](NC(=O)[C@H](C(C)C)N(C)C(=O)CCN=C=NCCOC)C(=O)N1CCC[C@H](N1)C(=O)OCC(C)(C)C2` [Compound 74], in the experiment on AsPC-1 (K-Ras G12D) [1] (setting [5]), the EC50 is less than 5 µM. The IC50 with AsPC-1 (K-Ras G12D) [2] (setting [6]) was 1 to 10 µM.
With `CCn1c(-c2cnccc2COC)c2c3cc(ccc31)-c1cc(O)cc(c1)C[C@H](NC(=O)[C@H](C(C)C)N(C)C(=O)CN(C)C(=O)[C@H]1N[C@@H]1c1ccc(OC)cc1)C(=O)N1CCC[C@H](N1)C(=O)OCC(C)(C)C2` [Compound 97], the EC50 in the experiment with AsPC-1 (K-Ras G12D) [1] (setting [3]) was less than 5 µM. Further, in the experiment on AsPC-1 (K-Ras G12D) [2] (setting [4]), the IC50 fell in the range of 1 to 10 µM.
The matching figures for `CCn1c(-c2cccnc2[C@H](C)OC)c2c3cc(ccc31)-c1cc(O)cc(c1)C[C@H](NC(=O)[C@H](C(C)C)N(C)C(=O)CNC(=O)[C@H]1CN1)C(=O)N1CCC[C@H](N1)C(=O)OCC(C)(C)C2` [Compound 140]: less than 5 µM and 1 to 10 µM.
Turning to `CCn1c(-c2cccnc2[C@H](C)OC)c2c3cc(ccc31)-c1cc(O)cc(c1)C[C@H](NC(=O)[C@H](C(C)C)N(C)C(=O)CN(C)C(=O)[C@H]1N[C@H]1C1COC1)C(=O)N1CCC[C@H](N1)C(=O)OCC(C)(C)C2` [Compound 282], the EC50 in the experiment with AsPC-1 (K-Ras G12D) [1] (setting [3]) was less than 5 µM. For the same compound, the IC50 in the experiment on AsPC-1 (K-Ras G12D) [2] (setting [4]) is 1 to 10 µM.
Regarding `CCn1c(-c2cccnc2[C@H](C)OC)c2c3cc(ccc31)-c1cc(O)cc(c1)C[C@H](NC(=O)[C@H](C(C)C)N(C)C(=O)[C@H]1CCCN1C(=O)[C@@H]1CN1)C(=O)N1CCC[C@H](N1)C(=O)OCC(C)(C)C2` [Compound 151], the EC50 in the experiment on AsPC-1 (K-Ras G12D) [1] (setting [3]) was less than 5 µM. Moreover, in the experiment with AsPC-1 (K-Ras G12D) [2] (setting [4]), the IC50 lay within 1 to 10 µM.
`CCn1c(-c2cccnc2[C@H](C)OC)c2c3cc(ccc31)-c1cccc(c1)C[C@H](NC(=O)[C@H](C(C)C)N(C)C(=O)[C@H]1C[C@H](N=C=NCCOC)C1)C(=O)N1CCC[C@H](N1)C(=O)OCC(C)(C)C2` [Compound 78]: the EC50 in the experiment with AsPC-1 (K-Ras G12D) [1] (setting [5]) is less than 5 µM. Also, the IC50 in the experiment with AsPC-1 (K-Ras G12D) [2] (setting [6]) lay within 1 to 10 µM.
`CCn1c(-c2cccnc2[C@H](C)OC)c2c3cc(ccc31)-c1cc(O)cc(c1)C[C@H](NC(=O)[C@H](C(C)C)N(C)C(=O)CN(C)C(=O)[C@@H]1CN1CC1COC1)C(=O)N1CCC[C@H](N1)C(=O)OCC(C)(C)C2` (stereo partly drawn) [Compound 278]: the EC50 with AsPC-1 (K-Ras G12D) [1] (setting [3]) was less than 5 µM. In addition, the IC50 in the experiment on AsPC-1 (K-Ras G12D) [2] (setting [4]) lay in the range of 1 to 10 µM.
